Results reported in US12116343B2, “Inhibitors of APOL1 and methods of using same” (Vertex Pharmaceuticals Incorporated, priority 2020, dated 2024).
Like-named read-outs stand apart in the source and are kept apart here.

Biological target: T1, G1 APOL1 (Homo sapiens, UniProt O14791, I384M/S342G)
T1 construct: expressed in transfected cells
T1 sequence (O14791 28-398 S342G/I384M): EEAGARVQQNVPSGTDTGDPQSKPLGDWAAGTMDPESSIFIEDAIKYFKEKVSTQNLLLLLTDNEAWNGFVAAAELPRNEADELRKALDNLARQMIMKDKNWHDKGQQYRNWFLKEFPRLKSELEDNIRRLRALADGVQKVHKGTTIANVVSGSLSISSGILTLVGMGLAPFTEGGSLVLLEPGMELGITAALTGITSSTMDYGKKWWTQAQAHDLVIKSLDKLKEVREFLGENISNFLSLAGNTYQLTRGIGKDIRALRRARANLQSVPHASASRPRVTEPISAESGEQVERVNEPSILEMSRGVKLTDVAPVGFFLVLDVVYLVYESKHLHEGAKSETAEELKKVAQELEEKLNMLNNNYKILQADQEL
Test: Acute APOL1 Thallium Assay with inducible stable clones of HEK 293 cells
Assay type: cell-based
Settings: read-out: Thallium Assay (IC50)
Outline: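 Tetracycline-inducible HEK293 T-Rex clone G1 DC3.25 expressing G1 APOL1, plated at 26000 cells/well in Opti-MEM with tetracycline induction. APOL1 pore activity read on FLIPR as fluorescence increase from Tl+ influx into cells loaded with a Tl+-sensitive AM-ester dye.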

[1] = HEK 293 T-Rex cells expressing G1 APOL1

| Structure (SMILES) | IC50 (Table 24, Compounds 287 to 465) [µM] | IC50 [1] [µM] |
| --- | --- | --- |
| Cc1cc(CNC(=O)C2CC(Cc3c(-c4ccc(F)cc4)[nH]c4c(F)cc(F)cc34)C2)nn1C (centres unmarked) [Compound 340] | > 1 |  |
| C[C@@H](O)CNC(=O)O[C@H]1C[C@H](c2c(-c3ccc(F)cc3)[nH]c3c(F)cc(F)cc32)C1 [Compound 369] | > 1 |  |
| CNC(=O)C(C)NCC1CC(c2c(-c3ccc(F)cc3)[nH]c3c(F)cc(F)cc23)C1 (mixture of isomers) [Compound 436] | 0.25 to 1 |  |
| O=C(NCc1ncc[nH]1)C1CC(Cc2c(-c3ccc(F)cc3)[nH]c3c(F)cc(F)cc23)C1 (centres unmarked) [Compound 342] | > 1 |  |
| O=C1CN(C(=O)[C@H]2C[C@@H](c3c(-c4ccc(F)cc4)[nH]c4c(F)cc(F)cc43)C2)CCN1 [Compound 275] |  | > 1 |
| O=C(NC[C@H]1C[C@H](c2c(-c3ccc(F)cc3)[nH]c3c(F)cc(F)cc32)C1)N[C@@H](CO)C(F)(F)F [Compound 413] | > 1 |  |
| CNC(=O)N(C)CC1CC(c2c(-c3ccc(F)cc3)[nH]c3c(F)cc(F)cc23)C1 (centres unmarked) [Compound 428] | > 1 |  |
| O=C(NCCO)NC[C@H]1C[C@H](c2c(-c3ccc(F)cc3)[nH]c3c(F)cc(F)cc32)C1 [Compound 393] | > 1 |  |
| COCC1(CNC(=O)C2CC(Cc3c(-c4ccc(F)cc4)[nH]c4c(F)cc(F)cc34)C2)CC1 (centres unmarked) [Compound 319] | > 1 |  |
| C[C@H](CO)NC(=O)CC1CC(c2c(-c3ccc(F)cc3)[nH]c3c(F)cc(F)cc23)C1 (some centres unmarked) [Compound 454] | > 1 |  |
| O=C(N[C@H]1C[C@H](O)C1)[C@H]1C[C@@H](c2c(-c3ccc(F)cc3)[nH]c3c(F)cc(F)cc32)C1 [Compound 267] |  | > 1 |
| O=C(NCC1CC(F)(F)C1)C1CC(Cc2c(-c3ccc(F)cc3)[nH]c3c(F)cc(F)cc23)C1 (centres unmarked) [Compound 328] | > 1 |  |
| CC1(CNC(=O)C2CC(Cc3c(-c4ccc(F)cc4)[nH]c4c(F)cc(F)cc34)C2)CCOC1 (mixture of isomers) [Compound 332] | > 1 |  |
| O=C(NCc1cocn1)C1CC(Cc2c(-c3ccc(F)cc3)[nH]c3c(F)cc(F)cc23)C1 (centres unmarked) [Compound 341] | > 1 |  |
| O=C(CC1CC(c2c(-c3ccc(F)cc3)[nH]c3c(F)cc(F)cc23)C1)N[C@H]1CCNC1=O (some centres unmarked) [Compound 456] | > 1 |  |
| O=C(NCC(F)F)N1CC(c2c(-c3ccc(F)cc3)[nH]c3c(F)cc(F)cc23)C1 [Compound 465, 3-(5,7-difluoro-2-(4-fluorophenyl)-1H-indol-3-yl)-N-(2,2-difluoroethyl)azetidine-1-carboxamide] | 0.25 to 1 |  |
| C[C@@H](CO)NC(=O)NC[C@H]1C[C@H](c2c(-c3ccc(F)cc3)[nH]c3c(F)cc(F)cc32)C1 [Compound 414] | > 1 |  |
| O=C(NCC1COC1)[C@H]1C[C@@H](c2c(-c3ccc(F)cc3)[nH]c3c(F)cc(F)cc32)C1 [Compound 248] |  | > 1 |
| Cn1nccc1CNC(=O)[C@H]1C[C@@H](c2c(-c3ccc(F)cc3)[nH]c3c(F)cc(F)cc32)C1 [Compound 265] |  | > 1 |
| COC1(CNC(=O)C2CC(Cc3c(-c4ccc(F)cc4)[nH]c4c(F)cc(F)cc34)C2)CCOC1 (centres unmarked) [Compound 343] | > 1 |  |
| C[C@H](CO)NC(=O)C1CCC(c2c(-c3ccc(F)cc3)[nH]c3c(F)cc(F)cc23)C1 (stereo partly drawn) [Compound 463, 3-[5,7-difluoro-2-(4-fluorophenyl)-1H-indol-3-yl]-N-[(1R)-2-hydroxy-1-methyl-ethyl]cyclopentanecarboxamide] | > 1 |  |
| Cn1cnc(CNC(=O)C2(C)CC(c3c(-c4ccc(F)cc4)[nH]c4c(F)cc(F)cc34)C2)c1 (mixture of isomers) [Compound 282] |  | 0.25 to 1 |
| CC[C@H](CO)NC(=O)NC[C@H]1C[C@H](c2c(-c3ccc(F)cc3)[nH]c3c(F)cc(F)cc32)C1 [Compound 418] | > 1 |  |
